Source: ChEMBL document CHEMBL4138236, “Trisubstituted barbiturates and thiobarbiturates: Synthesis and biological evaluation as xanthine oxidase inhibitors, antioxidants, antibacterial and anti-proliferative agents” (Eur J Med Chem, 2018)

How the values were obtained:
[1] = Antioxidant activity assessed as DPPH radical scavenging activity at 30 uM after 20 mins by spectrophotometric method relative to control; type: functional
[2] = Antioxidant activity assessed as DPPH radical scavenging activity at 30 uM after 60 mins by spectrophotometric method relative to control; type: functional
MCF7 = assay: Antiproliferative activity against human MCF7 cells at 30 uM after 72 hrs by MTT assay relative to control; type: functional
NHDF = assay: Antiproliferative activity against NHDF at 30 uM after 72 hrs by MTT assay relative to control; type: cell-based; details: human
Bacillus cereus = assay: Antibacterial activity against Bacillus cereus ATCC 1178 after 24 hrs by broth microdilution method; type: functional; details: ATCC 1178, 24 h
Staphylococcus aureus = assay: Antibacterial activity against Staphylococcus aureus ATCC 25923 after 24 hrs by broth microdilution method; type: functional; details: ATCC 25923, 24 h
Escherichia coli = assay: Antibacterial activity against Escherichia coli ATCC 25922 after 24 hrs by broth microdilution method; type: functional; details: ATCC 25922, 24 h
Klebsiella pneumoniae = assay: Antibacterial activity against Klebsiella pneumoniae ATCC 13883 after 24 hrs by broth microdilution method; type: functional; details: ATCC 13883, 24 h
Pseudomonas aeruginosa = assay: Antibacterial activity against Pseudomonas aeruginosa ATCC 27853 after 24 hrs by broth microdilution method; type: functional; details: ATCC 27853, 24 h
Salmonella typhimurium = assay: Antibacterial activity against Salmonella typhimurium ATCC 13311 after 24 hrs by broth microdilution method; type: functional, Salmonella enterica subsp. enterica serovar Typhimurium; details: Salmonella enterica, ATCC 13311, 24 h
Acinetobacter baumannii = assay: Antibacterial activity against Acinetobacter baumannii LMG 1025 after 24 hrs by broth microdilution method; type: functional; details: LMG 1025, 24 h

Row | SMILES | Activity [1] [%] | Activity [2] [%] | Activity (MCF7) [%] | Activity (NHDF) [%] | MIC (Bacillus cereus) [µM] | MIC (Staphylococcus aureus) [µM] | MIC (Escherichia coli) [µM] | MIC (Klebsiella pneumoniae) [µM] | MIC (Pseudomonas aeruginosa) [µM] | MIC (Salmonella typhimurium) [µM] | MIC (Acinetobacter baumannii) [µM]
1 | O=C1NC(=S)NC(=O)C1=CNc1ccccc1C(=O)O | -0.56 | -0.57 | 42.53 | 79.11 | > 200 | > 200 | > 200 | > 200 | > 200 | > 200 | > 200
2 | NC(=O)NC=C1C(=O)NC(=O)NC1=O | -5.19 | -5.32 | 55.71 | 78.89 | > 200 | > 200 | > 200 | > 200 | > 200 | > 200 | > 200
3 | CN1C(=O)C(=CNC(N)=O)C(=O)N(C)C1=O | 2.1 | 2.91 | 97.13 | 86.84 | > 200 | > 200 | > 200 | > 200 | > 200 | > 200 | > 200
4 | Oc1ncnc2[nH]ncc12 [ALLOPURINOL] | -6.02 | -5.41 | – | – | – | – | – | – | – | – | –
5 | NC(S)=NC=C1C(=O)NC(=O)NC1=O | 6.73 | 16.6 | 71.09 | 78.05 | > 200 | > 200 | > 200 | > 200 | > 200 | > 200 | > 200
6 | CC(NN)=C1C(=O)NC(=O)NC1=O | 11.6 | 25.4 | 98.27 | 82.68 | > 200 | > 200 | > 200 | > 200 | > 200 | > 200 | > 200
7 | Nc1ccccc1NC=C1C(=O)NC(=S)NC1=O | 6.1 | 17.3 | 64.55 | 70.13 | > 200 | > 200 | > 200 | > 200 | > 200 | > 200 | > 200
8 | O=C1NC(=S)NC(=O)C1=CNc1cc([N+](=O)[O-])ccc1Cl | -4.31 | -3.68 | 63.7 | 70.28 | > 200 | > 200 | > 200 | > 200 | > 200 | > 200 | > 200
9 | CC(=O)C1C(=O)NC(=O)NC1=O | -6.91 | -7.28 | 80.64 | 124.84 | > 200 | > 200 | > 200 | > 200 | > 200 | > 200 | > 200
10 | CN1C(=O)C(=Cc2ccccc2[N+](=O)[O-])C(=O)N(C)C1=O | -0.8 | -1.77 | 54.64 | 79.11 | > 200 | > 200 | > 200 | > 200 | > 200 | > 200 | > 200
11 | CN1C(=O)C(=CNc2cc([N+](=O)[O-])ccc2Cl)C(=O)N(C)C1=O | -0.82 | 0 | 50.07 | 66.98 | > 200 | > 200 | > 200 | > 200 | > 200 | > 200 | > 200
12 | O=C1NC(=S)NC(=O)C1=CNc1ccccc1[N+](=O)[O-] | -12.5 | -11.8 | 80.23 | 78.75 | > 200 | > 200 | > 200 | > 200 | > 200 | > 200 | > 200
13 | NC(=O)NC=C1C(=O)NC(=S)NC1=O | 5.26 | 5.6 | 104.66 | 74.57 | > 200 | > 200 | > 200 | > 200 | > 200 | > 200 | > 200
14 | CC(=O)C1C(=O)N(C)C(=O)N(C)C1=O | -9.14 | -9.91 | 84.11 | 94.14 | > 200 | > 200 | > 200 | > 200 | > 200 | > 200 | > 200
15 | O=C1NC(=O)C(=Cc2ccccc2[N+](=O)[O-])C(=O)N1 | -0.9 | -0.78 | 58.88 | 72.88 | > 200 | > 200 | > 200 | > 200 | > 200 | > 200 | > 200
16 | N#CC(c1ccc(Br)cc1)c1c([O-])[nH]c(=S)[nH]c1=O.[Na+] (stereo not drawn) | -9.22 | -8.33 | 90.08 | 89.93 | > 200 | > 200 | > 200 | > 200 | > 200 | > 200 | > 200
17 | CC(NNc1ccc([N+](=O)[O-])cc1[N+](=O)[O-])=C1C(=O)NC(=O)NC1=O | 17.6 | 18.1 | 50.01 | 79.47 | > 200 | > 200 | > 200 | > 200 | > 200 | > 200 | > 200
18 | COc1ccc(CC2C(=O)NC(=O)NC2=O)cc1 | 10.4 | 14 | 73.12 | 60.77 | > 200 | > 200 | > 200 | > 200 | > 200 | > 200 | > 200
19 | CC(NN)=C1C(=O)N(c2ccccc2)C(=S)N(c2ccccc2)C1=O | 31.3 | 41.9 | 99.93 | 86.68 | > 200 | > 200 | > 200 | > 200 | > 200 | > 200 | > 200
20 | O=C(O)c1ccccc1NC=C1C(=O)N(c2ccccc2)C(=S)N(c2ccccc2)C1=O | -2.45 | -2.27 | 43.11 | 82.24 | > 200 | > 200 | > 200 | > 200 | > 200 | > 200 | > 200
21 | CC(=O)C1C(=O)N(c2ccccc2)C(=S)N(c2ccccc2)C1=O | -8.55 | -7.43 | 75.32 | 89.63 | > 200 | > 200 | > 200 | > 200 | > 200 | > 200 | > 200
22 | Cn1c([O-])c(C(C#N)c2ccc(Br)cc2)c(=O)n(C)c1=O.[Na+] (stereo not drawn) | 0.45 | 1.2 | 79.47 | 80.09 | > 200 | > 200 | > 200 | > 200 | > 200 | > 200 | > 200
23 | O=C1NC(=S)NC(=O)C1=Cc1ccccc1[N+](=O)[O-] | -2.2 | -0.23 | 56.35 | 81.31 | > 200 | > 200 | > 200 | > 200 | > 200 | > 200 | > 200
24 | COc1ccc(C=C2C(=O)NC(=O)NC2=O)cc1 | -0.97 | 2.63 | 78.75 | 71.59 | > 200 | > 200 | > 200 | > 200 | > 200 | > 200 | > 200
25 | O=C1C(=Cc2ccccc2[N+](=O)[O-])C(=O)N(c2ccccc2)C(=S)N1c1ccccc1 | 9 | 11.3 | 67.93 | 77.56 | > 200 | > 200 | > 200 | > 200 | > 200 | > 200 | > 200
26 | CC(NNc1ccc([N+](=O)[O-])cc1[N+](=O)[O-])=C1C(=O)N(C)C(=O)N(C)C1=O | 28 | 26.7 | 69.95 | 73.63 | > 200 | > 200 | > 200 | > 200 | > 200 | > 200 | > 200
27 | O=C1NC(=S)NC(=O)C1=CNc1ccccc1Cl | 1.12 | 0.92 | 47.17 | 65.67 | > 200 | > 200 | > 200 | > 200 | > 200 | > 200 | > 200
